Results taken from ChEMBL document CHEMBL3785036 (J Pharm Sci, 1974).

Experiments:
Format in all cases: ADME, organism-based
[1] = Drug metabolism in human slow inactivators assessed as excretion of 1,2-diacetylhydrazine in urine at 1 g, iv by colorimetry; details: in vivo
[2] = Drug excretion in human subject slow inactivator assessed as sum of isoniazid plus hydrazones, acetylisoniazid, isonicotinic acid and isonicotinuric acid level in urine at 681 mg, iv infused at constant rate 5.4 min measured 59.1 mins after start of drug injection by colorimetry; details: in vivo, 0.985 h
[3] = Drug excretion in human subject slow inactivator assessed as sum of isoniazid plus hydrazones, acetylisoniazid, isonicotinic acid and isonicotinuric acid level in urine at 681 mg, iv infused at constant rate 5.4 min measured 243.5 mins after start of drug injection by colorimetry; details: in vivo
[4] = Drug excretion in human subject rapid inactivator assessed as total isonicotinoyl compound level in urine at 670 mg, iv infused at constant rate 5.2min measured 516 mins after start of drug injection by colorimetry; details: in vivo
[5] = Drug excretion in human subject slow inactivator assessed as sum of isoniazid plus hydrazones, acetylisoniazid, isonicotinic acid and isonicotinuric acid level in urine at 681 mg, iv infused at constant rate 5.4 min measured 305 mins after start of drug injection by colorimetry; details: in vivo
[6] = Drug excretion in human subject slow inactivator assessed as sum of isoniazid plus hydrazones, acetylisoniazid, isonicotinic acid and isonicotinuric acid level in urine at 681 mg, iv infused at constant rate 5.4 min measured 370.3 mins after start of drug injection by colorimetry; details: in vivo, 6.17167 h
[7] = Drug excretion in human subject slow inactivator assessed as sum of isoniazid plus hydrazones, acetylisoniazid, isonicotinic acid and isonicotinuric acid level in urine at 681 mg, iv infused at constant rate 5.4 min measured 396 mins after start of drug injection by colorimetry; details: in vivo, 6.6 h
[8] = Drug excretion in human subject slow inactivator assessed as sum of isoniazid plus hydrazones, acetylisoniazid, isonicotinic acid and isonicotinuric acid level in urine at 681 mg, iv infused at constant rate 5.4 min measured 554 mins after start of drug injection by colorimetry; details: in vivo
[9] = Drug excretion in human subject slow inactivator assessed as sum of isoniazid plus hydrazones, acetylisoniazid, isonicotinic acid and isonicotinuric acid level in urine at 681 mg, iv infused at constant rate 5.4 min measured 613 mins after start of drug injection by colorimetry; details: in vivo
[10] = Drug excretion in human subject slow inactivator assessed as sum of isoniazid plus hydrazones, acetylisoniazid, isonicotinic acid and isonicotinuric acid level in urine at 681 mg, iv infused at constant rate 5.4 min measured 648 mins after start of drug injection by colorimetry; details: in vivo
[11] = Drug excretion in human subject slow inactivator assessed as total isonicotinoyl compound level in urine at 681 mg, iv infused at constant rate 5.4 min measured 116 mins after start of drug injection by colorimetry; details: in vivo
[12] = Drug excretion in human subject slow inactivator assessed as total isonicotinoyl compound level in urine at 681 mg, iv infused at constant rate 5.4 min measured 150 mins after start of drug injection by colorimetry; details: in vivo, 2.5 h
[13] = Drug excretion in human subject slow inactivator assessed as total isonicotinoyl compound level in urine at 681 mg, iv infused at constant rate 5.4 min measured 243.5 mins after start of drug injection by colorimetry; details: in vivo
[14] = Drug excretion in human subject slow inactivator assessed as total isonicotinoyl compound level in urine at 681 mg, iv infused at constant rate 5.4 min measured 339.3 mins after start of drug injection by colorimetry; details: in vivo, 5.655 h
[15] = Drug excretion in human subject slow inactivator assessed as total isonicotinoyl compound level in urine at 681 mg, iv infused at constant rate 5.4 min measured 370.3 mins after start of drug injection by colorimetry; details: in vivo, 6.17167 h
[16] = Drug excretion in human subject slow inactivator assessed as total isonicotinoyl compound level in urine at 681 mg, iv infused at constant rate 5.4 min measured 430.2 mins after start of drug injection by colorimetry; details: in vivo, 7.17 h
[17] = Drug excretion in human subject slow inactivator assessed as total isonicotinoyl compound level in urine at 681 mg, iv infused at constant rate 5.4 min measured 466 mins after start of drug injection by colorimetry; details: in vivo
[18] = Drug excretion in human rapid inactivators urine assessed as isoniazid plus hydrazones level at 1 g, iv by colorimetry; details: in vivo
[19] = Drug metabolism in human rapid inactivators assessed as excretion of isonicotinuric acid in urine at 1 g, iv by colorimetry; details: in vivo
[20] = Drug metabolism in human rapid inactivators assessed as excretion of 1,2-diacetylhydrazine in urine at 1 g, iv by colorimetry; details: in vivo
[21] = Drug metabolism in human slow inactivators assessed as excretion of pyruvic acid isonicotinoylhydrazone in urine at 1 g, iv by colorimetry; details: in vivo
[22] = Drug excretion in human subject slow inactivator assessed as total isonicotinoyl compound level in urine at 681 mg, iv infused at constant rate 5.4 min measured 648 mins after start of drug injection by colorimetry; details: in vivo, 10.8 h
[23] = Drug excretion in human subject rapid inactivator assessed as sum of isoniazid plus hydrazones, acetylisoniazid, isonicotinic acid and isonicotinuric acid level in urine at 670 mg, iv infused at constant rate 5.2min measured 32 mins after start of drug injection by colorimetry; details: in vivo
[24] = Drug excretion in human subject rapid inactivator assessed as sum of isoniazid plus hydrazones, acetylisoniazid, isonicotinic acid and isonicotinuric acid level in urine at 670 mg, iv infused at constant rate 5.2min measured 400 mins after start of drug injection by colorimetry; details: in vivo
[25] = Drug excretion in human subject rapid inactivator assessed as sum of isoniazid plus hydrazones, acetylisoniazid, isonicotinic acid and isonicotinuric acid level in urine at 670 mg, iv infused at constant rate 5.2min measured 516 mins after start of drug injection by colorimetry; details: in vivo
[26] = Drug excretion in human subject rapid inactivator assessed as total isonicotinoyl compound level in urine at 670 mg, iv infused at constant rate 5.2min measured 32 mins after start of drug injection by colorimetry; details: in vivo
[27] = Drug excretion in human subject rapid inactivator assessed as total isonicotinoyl compound level in urine at 670 mg, iv infused at constant rate 5.2min measured 158 mins after start of drug injection by colorimetry; details: in vivo
[28] = Drug excretion in human subject rapid inactivator assessed as total isonicotinoyl compound level in urine at 670 mg, iv infused at constant rate 5.2min measured 195 mins after start of drug injection by colorimetry; details: in vivo, 3.25 h
[29] = Drug excretion in human subject rapid inactivator assessed as total isonicotinoyl compound level in urine at 670 mg, iv infused at constant rate 5.2min measured 296 mins after start of drug injection by colorimetry; details: in vivo
[30] = Drug excretion in human subject rapid inactivator assessed as total isonicotinoyl compound level in urine at 670 mg, iv infused at constant rate 5.2min measured 335 mins after start of drug injection by colorimetry; details: in vivo
[31] = Drug excretion in human subject rapid inactivator assessed as total isonicotinoyl compound level in urine at 670 mg, iv infused at constant rate 5.2min measured 426 mins after start of drug injection by colorimetry; details: in vivo, 7.1 h

Structure (SMILES): NNC(=O)c1ccncc1 [ISONIAZID]
- Drug metabolism [1]: 32.3 %molar
- Drug excretion [2]: 30.44 mg
- Drug excretion [3]: 37.21 mg
- Drug excretion [4]: 17 mg
- Drug excretion [5]: 27.92 mg
- Drug excretion [6]: 26.76 mg
- Drug excretion [7]: 17.18 mg
- Drug excretion [8]: 13.38 mg
- Drug excretion [9]: 11.202 mg
- Drug excretion [10]: 12.82 mg
- Drug excretion [11]: 32 mg
- Drug excretion [12]: 38.1 mg
- Drug excretion [13]: 36.2 mg
- Drug excretion [14]: 32 mg
- Drug excretion [15]: 26.6 mg
- Drug excretion [16]: 20 mg
- Drug excretion [17]: 20 mg
- Drug excretion [18]: 99.6%
- Drug metabolism [19]: 21.3 %molar
- Drug metabolism [20]: 48.4 %molar
- Drug metabolism [21]: 13.9 %molar
- Drug excretion [22]: 11.6 mg
- Drug excretion [23]: 42.1 mg
- Drug excretion [24]: 17.9 mg
- Drug excretion [25]: 16.8 mg
- Drug excretion [26]: 45.9 mg
- Drug excretion [27]: 51.7 mg
- Drug excretion [28]: 59.9 mg
- Drug excretion [29]: 42.1 mg
- Drug excretion [30]: 29.6 mg
- Drug excretion [31]: 17.1 mg
